“Also recorded” adds a separate entry of the source.
Experiments:
[1] = molecular target: T1, PB1(5) (Homo sapiens, UniProt Q86U86); assay: Protein stability (thermal) shift assay, PB1(5); format: binding; settings: compound 10 μM, protein 2 μM; average of triplicate
T1 construct: made in house

[2] = molecular target: T2, BRD2(2) (Homo sapiens, UniProt P25440); assay: Protein stability (thermal) shift assay, BRD2(2); format: binding; settings: compound 10 μM, protein 2 μM; average of triplicate
T2 construct: made in house

[3] = molecular target: T3, BRD3(1) (Homo sapiens, UniProt Q15059); assay: Protein stability (thermal) shift assay, BRD3(1); format: binding; settings: compound 10 μM, protein 2 μM; average of triplicate
T3 construct: Fragments were tested in a thermal shift assay against bromodomains of the BET subfamily; made in house

[4] = molecular target: T4, BRD3(2) (Homo sapiens, UniProt Q15059); assay: Protein stability (thermal) shift assay, BRD3(2); format: binding; settings: compound 10 μM, protein 2 μM; average of triplicate
T4 construct: made in house

[5] = molecular target: T5, BAZ2B (Homo sapiens, UniProt Q9UIF8); assay: Protein stability (thermal) shift assay, BAZ2B; format: binding; settings: compound 10 μM, protein 2 μM; average of triplicate; read-out: ΔTm Shift, BAZ2BA
T5 construct: representative BRDs from other structural subfamilies (family I, PCAF); family III, CREBBP; family IV, BRD9; family V, BAZ2B; made in house
T5 sequence (Q9UIF8 2060-2164 limits assumed): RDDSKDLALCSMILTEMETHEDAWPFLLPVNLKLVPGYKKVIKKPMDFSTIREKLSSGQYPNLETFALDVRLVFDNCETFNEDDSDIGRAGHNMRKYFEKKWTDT

[6] = system: HEK293 cells; assay: In vitro cytotoxicity (CellTiter-Glo); format: cell-based, human; settings: cell viability, 0.005-33 μM
Experimental: Following NanoBRET substrate addition and NanoBRET measurements, to the same wells an equal volume of CellTiter-Glo reagent (Promega) was added and the plates were incubated for 30 min at room temperature. Total luminescence was measured, and relative compound toxicity was determined by comparing the RLUs (relative light units) of a sample containing DMSO vehicle (in the absence of compound 11) to the RLUs of the samples containing 0.005–33 μM compound 11.

T3 sequence (Q15059 34-140 limits assumed): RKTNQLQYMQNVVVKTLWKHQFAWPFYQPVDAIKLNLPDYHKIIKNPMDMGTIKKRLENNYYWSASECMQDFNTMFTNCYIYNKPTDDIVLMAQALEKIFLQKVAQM
T2 sequence (P25440 344-453 limits assumed): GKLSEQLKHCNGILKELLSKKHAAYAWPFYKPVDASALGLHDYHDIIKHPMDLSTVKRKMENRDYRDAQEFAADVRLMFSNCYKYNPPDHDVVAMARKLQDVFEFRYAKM
T4 sequence (Q15059 306-415 limits assumed): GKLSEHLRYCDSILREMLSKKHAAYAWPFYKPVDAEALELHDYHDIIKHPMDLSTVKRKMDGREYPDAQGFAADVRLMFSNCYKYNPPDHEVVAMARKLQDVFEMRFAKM
T1 sequence (Q86U86 653-763 limits assumed): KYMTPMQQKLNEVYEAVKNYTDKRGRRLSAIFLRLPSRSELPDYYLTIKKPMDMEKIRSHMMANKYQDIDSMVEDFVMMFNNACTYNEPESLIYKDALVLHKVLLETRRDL

Structure (SMILES)	ΔTm at 10 µM [1] [°C]	ΔTm at 10 µM [2] [°C]	ΔTm at 10 µM [3] [°C]	ΔTm at 10 µM [4] [°C]	ΔTm at 10 µM [5] [°C]	cytotoxicity toward HEK293 cells (in words) [6]
COc1ccc(Br)cc1-c1nc(N)nc2[nH]cnc12 [Compound 7d, 2-Amino-6-(5-bromo-2-methoxyphenyl)-9H-purine]	1.6	0.9	2.1	0.7	0.237	not cytotoxic
Nc1nc(-c2cc(Br)cc3c2OCC3)c2nc[nH]c2n1 [Compound 11, 2-Amino-6-(5-bromo-2,3-dihydrobenzo[b]furan-7-yl)-9H-purine]	0.8	4.3	3.7	5.4	0.37	did not observe any cytotoxicty; also recorded: not cytotoxic; also recorded: not toxic

— PMC4403932 (Journal of Medicinal Chemistry, 2015)
